Source: ChEMBL document CHEMBL4346753, “Towards multi-target antidiabetic agents: Discovery of biphenyl-benzimidazole conjugates as AMPK activators” (Bioorg Med Chem Lett, 2019)
Activity calls are given as the source filed them. The calls are words filed in the database; no cut-off is given here.

Tests used:
[1] = Inhibition of AGE formation assessed as reduction in bovin serum albumin glycation at 1 mM incubated for 24 hrs in presence of glucose by spectrophotometric analysis relative to control; type: functional
[2] = Ratio of antiplatelet activity for test compound to antiplatelet activity for acetylsalicylic acid in rabbit platelet rich plasma assessed as inhibition of ADP-induced platelet aggregation at 100 uM; type: functional, Oryctolagus cuniculus
[3] = species on record: Rattus norvegicus; test: Antagonist activity at AT1 receptor in rat portal vein assessed as reduction in […] contraction at 10 uM incubated for 1 min relative to control; parameters: scale not given: the % may be the effect or the level left
[4] = Solubility of the compound in PBS at pH 7.4; type: physicochemical
[5] = tested on: Peritoneal macrophage; test: Anti-inflammatory activity in mouse peritoneal macrophages assessed as inhibition of LPS-induced NO production incubated for 22 hrs by Griess reagent based colorimetric assay; type: functional, cell-based
[6] = tested on: Platelet; test: Antiplatelet activity in rabbit platelet rich plasma assessed as inhibition of ADP-induced platelet aggregation at 100 uM relative to control; type: functional, Oryctolagus cuniculus; parameters: scale not given: the % may be the effect or the level left
[7] = biological target: T1, AMP-activated protein kinase (AMPK) alpha-1/beta-1/gamma-1 (Homo sapiens) (UniProt P54619+Q9Y478+Q13131); test: Activation of C-terminal His tagged human recombinant full length AMPK alpha1/beta1/gamma1 expressed in baculovirus infected Sf9 cells using SAMS peptide as substrate at 100 uM incubated for 60 mins by ADP-Glo luminescence assay relative to control
T1 sequence (P54619 whole entry): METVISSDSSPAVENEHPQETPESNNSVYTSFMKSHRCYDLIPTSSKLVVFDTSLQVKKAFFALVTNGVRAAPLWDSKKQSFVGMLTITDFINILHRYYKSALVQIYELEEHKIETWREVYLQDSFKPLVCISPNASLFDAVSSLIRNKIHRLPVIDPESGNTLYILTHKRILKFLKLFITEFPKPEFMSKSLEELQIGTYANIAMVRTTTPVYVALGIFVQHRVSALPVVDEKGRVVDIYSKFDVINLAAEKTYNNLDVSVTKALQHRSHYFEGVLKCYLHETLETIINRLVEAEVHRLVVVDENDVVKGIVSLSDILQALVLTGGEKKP
T1 sequence (Q13131 whole entry partner): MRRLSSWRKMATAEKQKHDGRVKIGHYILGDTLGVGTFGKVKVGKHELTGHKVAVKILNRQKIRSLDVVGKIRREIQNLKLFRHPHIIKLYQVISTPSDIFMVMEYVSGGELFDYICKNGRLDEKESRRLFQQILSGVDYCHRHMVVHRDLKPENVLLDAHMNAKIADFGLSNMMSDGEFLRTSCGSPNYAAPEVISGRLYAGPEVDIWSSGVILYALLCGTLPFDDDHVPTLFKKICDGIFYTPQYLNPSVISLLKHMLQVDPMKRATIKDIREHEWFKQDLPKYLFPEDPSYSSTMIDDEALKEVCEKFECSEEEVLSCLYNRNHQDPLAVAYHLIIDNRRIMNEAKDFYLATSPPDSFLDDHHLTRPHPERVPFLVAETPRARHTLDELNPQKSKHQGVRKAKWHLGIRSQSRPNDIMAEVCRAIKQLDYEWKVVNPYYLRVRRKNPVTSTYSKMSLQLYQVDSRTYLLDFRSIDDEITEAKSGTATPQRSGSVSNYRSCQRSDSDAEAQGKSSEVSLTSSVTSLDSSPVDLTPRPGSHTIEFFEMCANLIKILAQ
T1 sequence (Q9Y478 2-270 partner limits assumed): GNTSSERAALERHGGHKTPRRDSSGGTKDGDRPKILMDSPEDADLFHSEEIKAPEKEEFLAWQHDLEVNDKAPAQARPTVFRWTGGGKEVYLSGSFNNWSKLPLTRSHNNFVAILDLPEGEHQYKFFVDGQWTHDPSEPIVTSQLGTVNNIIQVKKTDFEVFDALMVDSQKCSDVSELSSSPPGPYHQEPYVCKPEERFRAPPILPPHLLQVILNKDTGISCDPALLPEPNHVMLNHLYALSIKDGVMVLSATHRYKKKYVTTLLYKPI

[8] = biological target: T2, AMP-activated protein kinase (AMPK) alpha-1/beta-1/gamma-1 (Homo sapiens, UniProt P54619+Q13131+Q9Y478); test: (§1) Activation of C-terminal His tagged human recombinant full length AMPK alpha1/beta1/gamma1 expressed in baculovirus infected Sf9 cells using SAMS peptide as substrate incubated for 60 mins by ADP-Glo luminescence assay
T2 sequence (P54619 whole entry): as the sequence (P54619 whole entry) above
T2 sequence (Q9Y478 whole entry): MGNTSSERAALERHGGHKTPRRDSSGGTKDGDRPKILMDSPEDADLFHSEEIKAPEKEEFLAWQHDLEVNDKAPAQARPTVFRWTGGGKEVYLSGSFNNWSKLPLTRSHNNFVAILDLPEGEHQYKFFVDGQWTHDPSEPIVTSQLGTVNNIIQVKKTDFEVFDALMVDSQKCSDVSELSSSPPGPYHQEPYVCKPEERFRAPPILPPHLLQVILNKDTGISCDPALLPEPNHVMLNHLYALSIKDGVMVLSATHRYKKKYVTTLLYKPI
T2 sequence (Q13131 whole entry): as the sequence (Q13131 whole entry partner) above

[9] = biological target: T1, AMP-activated protein kinase (AMPK) alpha-1/beta-1/gamma-1 (Homo sapiens); test: Activation of C-terminal His tagged human recombinant full length AMPK alpha1/beta1/gamma1 expressed in baculovirus infected Sf9 cells assessed as enzyme activation using SAMS peptide as substrate at 100 uM incubated for 60 mins by ADP-Glo luminescence assay relative to control
[10] = Inhibition of AGE formation assessed as reduction in reduction in bovin serum albumin glycation incubated for 24 hrs in presence of glucose by spectrophotometric analysis; type: functional
[11] = Inhibition of AGE formation assessed as reduction in reduction in bovin serum albumin glycation incubated for 24 hrs in presence of glucose, Cu2+ by spectrophotometric analysis; type: functional
[12] = Ratio of inhibition of formation in AGE for test compound to inhibition of formation in AGE for aminoguanidine at 1 mM incubated for 24 hrs in presence of glucose by spectrophotometric analysis
[13] = Binding affinity to glyoxal assessed as reduction in glyoxal by GirardT reagent based spectrophotometric method
[14] = Inhibition of AGE formation assessed as reduction in reduction in bovin serum albumin glycation at 1 mM incubated for 24 hrs in presence of glucose, Cu2+ by spectrophotometric analysis relative to control; type: functional
[15] = biological target: T1, AMP-activated protein kinase (AMPK) alpha-1/beta-1/gamma-1 (Homo sapiens); test: as §1
[16] = tested on: Peritoneal macrophage; test: Cytotoxicity against mouse peritoneal macrophages up to 50 uM incubated for 24 hrs by MTT assay; type: cell-based
[17] = tested on: Peritoneal macrophage; test: Cytotoxicity against mouse peritoneal macrophages up to 50 uM incubated for 24 hrs by neutral red assay; type: cell-based
[18] = biological target: 5'-AMP-activated protein kinase; test: Activation of recombinant mouse AMPK expressed in Sf9 cells using SAMS peptide as substrate preincubated for 30 mins followed by substrate addition and measured after 60 mins by fluorescence based assay
[19] = biological target: AMP-activated protein kinase, AMPK; test: Activation of recombinant human AMPK expressed in Sf9 cells using SAMS peptide as substrate preincubated for 30 mins followed by substrate addition and measured after 60 mins by fluorescence based assay
[20] = Activation of recombinant rhesus monkey AMPK expressed in Sf9 cells using SAMS peptide as substrate preincubated for 30 mins followed by substrate addition and measured after 60 mins by fluorescence based assay; parameters: species or system Macaca mulatta
[21] = biological target: T2, AMP-activated protein kinase (AMPK) alpha-1/beta-1/gamma-1; test: Activation of human AMPK alpha1/beta1/gamma1 expressed in baculovirus/Sf9 cells using SAMS peptide as substrate incubated for 15 mins by in presence of 33P-ATP by liquid scintillation counting method

In the case of `Br.N#Cc1ccccc1-c1ccc(CN2C3=NCCN3c3ccccc32)cc1`, the inhibition [1] is reported as 8.6%, the Ratio [2] is reported as 2.1 - 3.6 and the Activity [3] is reported as 21.9%. For the same molecule, the solubility [4] was over 500 µM, the IC50 [5] was 5.32 µM and the Activity [6] was 57.1%. The Activity [7] was 163%, the EC50 ([8]; read-out: EC50) was 109 µM and the EC50 ([8]; read-out: pEC50 (converted)) was 25.1 µM. The fold change (FC) [9] was 1.56.
With `Cc1ccc(OCCSc2ncccn2)c(Br)c1` the Activity [7] was 157% and the EC50 ([8]; read-out: EC50) was 0.55 µM.
For `Br.c1ccc(-c2ccc(CN3C4=NCCCCN4c4ccccc43)cc2)cc1`, the Ratio [2] was 2.1 - 3.6, the Activity [3] was 13.5% and the Activity [6] was 98.7%. It also gave an Activity [7] of 12.3%.
`CC(=O)Oc1ccccc1C(=O)O` [ASPIRIN] gave an Activity [6] of 27.8%.
In the case of `Br.COC(=O)c1ccccc1-c1ccc(CN2C3=NCCCCN3c3ccccc32)cc1`, the inhibition [1] is reported as 17.9%, the Ratio [2] is reported as 2.1 - 3.6 and the Activity [3] is reported as 33.3%. For the same molecule, the Activity [6] was 97.4% and the Activity [7] was -11.3%.
Work on `C[C@@H]1C[C@H]2[C@@H]3CCC4=CC(=O)C=C[C@]4(C)[C@@]3(F)[C@@H](O)C[C@]2(C)[C@@]1(O)C(=O)CO` [DEXAMETHASONE] yielded an IC50 [5] of 0.15 µM.
`O=C(O)c1ccccc1-c1ccc(CN2C3=NCCCN3c3ccccc32)cc1` gave an inhibition [1] of 38.5%, an Activity [3] of 7.5% and an Activity [7] of -16.2%.
`Br.N#Cc1ccc(C(=O)CN2C3=NCCN3c3ccccc32)cc1` gave an IC50 [10] of 422 µM, an inhibition [1] of 72.1% and an IC50 ([11]; read-out: IC50) of over 1000 µM. For the same molecule, the Activity [3] was 0%, the solubility [4] was over 500 µM and the Ratio [12] was 1.8. The Activity [6] was 6.6%, the Activity [7] was 25.5% and the Activity [13] was “Active”. For the same molecule, the inhibition [14] was 25.4%, the pEC50 [15] was “inactive” and the “fold change (FC)” value [9] was “inactive”.
For `O=C(O)c1ccccc1-c1ccc(CN2C3=NCCN3c3ccccc32)cc1`, the inhibition [1] was 7.7%, the Activity [3] was -1.7% and the Activity [7] was 6.9%.
For `Br.c1ccc(-c2ccc(CN3C4=NCCN4c4ccccc43)cc2)cc1`, the inhibition [1] was 22.5%, the Ratio [2] was 2.1 - 3.6 and the Activity [3] was 5.2%. It also gave an Activity [6] of 89.2% and an Activity [7] of 54.2%.
With `Br.N#Cc1ccccc1-c1ccc(CN2C3=NCCCN3c3ccccc32)cc1` the Activity [16] was “Non-Toxic”, the inhibition [1] was -9.2% and the Activity [3] was 40.4%. For the same molecule, the solubility [4] was over 500 µM, the IC50 [5] was 4.96 µM and the Activity [7] was 197%. For the same molecule, the Activity [17] was “Non-Toxic”, the EC50 ([8]; read-out: EC50) was 0.34 µM and the fold change (FC) [9] was 2.81.
For `O[C@@H]1CO[C@H]2[C@@H]1OC[C@H]2Oc1nc2nc(-c3ccc(-c4ccccc4)cc3)c(Cl)cc2[nH]1`, the EC50 [18] was 0.001 to 0.06 µM, the EC50 [19] was 0.001 to 0.06 µM and the EC50 [20] was 0.001 to 0.06 µM.
With `N=C(N)NN` [PIMAGEDINE] the IC50 [10] was 765 µM, the inhibition [1] was 57.8% and the IC50 [11] was “Not Active”. The Activity [13] was “Active”.
In the case of `Br.c1ccc(-c2ccc(CN3C4=NCCCN4c4ccccc43)cc2)cc1`, the inhibition [1] is reported as 9.9%, the Ratio [2] is reported as 2.1 - 3.6 and the Activity [3] is reported as 14.6%. The Activity [6] was 95.2% and the Activity [7] was 16%.
Work on `COC(=O)c1ccccc1-c1ccc(CN2C3=NCCN3c3ccccc32)cc1` yielded an inhibition [1] of 0.4%, an Activity [3] of -5.7% and an Activity [7] of 3.5%.
`COC(=O)c1ccccc1-c1ccc(CN2C3=NCCCN3c3ccccc32)cc1` showed an inhibition [1] of 14.9%, an Activity [3] of 5.9% and an Activity [7] of 21.7%.
For `Br.N#Cc1ccccc1-c1ccc(CN2C3=NCCCCN3c3ccccc32)cc1`, the Activity [16] was “Non-Toxic”, the Activity [3] was 0% and the solubility [4] was over 500 µM. The Activity [7] was 293%, the Activity [17] was “Non-Toxic” and the EC50 ([8]; read-out: EC50) was 0.44 µM. For the same molecule, the fold change (FC) [9] was 4.
`O=C(O)c1ccccc1-c1ccc(CN2C3=NCCCCN3c3ccccc32)cc1` showed an inhibition [1] of 30.8%, an Activity [3] of 20% and an Activity [7] of -36.4%.
In the case of `N#Cc1c(O)c2c(-c3ccc(-c4ccccc4O)cc3)csc2[nH]c1=O`, the EC50 [21] is reported as 0.8 µM.
With `Br.CCOC(=O)c1ccc(CN2C3=NCCN3c3ccccc32)cc1` the inhibition [1] was 17.5%, the Ratio [2] was 2.1 - 3.6 and the Activity [3] was 5.6%. For the same molecule, the Activity [6] was 76.3% and the Activity [7] was 0.6%.
Molecule `CCCCc1nc(Cl)c(CO)n1Cc1ccc(-c2ccccc2-c2nnn[nH]2)cc1` [LOSARTAN] has an IC50 [10] of over 1000 µM, an inhibition [1] of 51.4% and an IC50 ([11]; read-out: IC50) of 782 µM. For the same molecule, the Activity [3] was 99% and the inhibition [14] was 51.4%.
For `Br.O=C(O)c1ccc(CN2C3=NCCN3c3ccccc32)cc1`, the inhibition [1] was 19.2%, the Ratio [2] was 2.1 - 3.6 and the Activity [3] was 11.1%. For the same molecule, the Activity [6] was 57% and the Activity [7] was 3.7%.
